According to US11701332B2, “Methods and compositions for treating female sexual interest and arousal disorder” (priority 2020, dated 2023):

Tests used:
[1] = in vivo; cited from earlier work
[2] = in vivo; cited from earlier work; remark: listed apart in the source
[3] = biological target: peripheral androgen receptors (AR) (Homo sapiens, UniProt P10275); conditions: 450 mg darolutamide twice daily, person
Protocol: A person diagnosed with FSIAD is administered a 30 mg testosterone enanthate injection weekly, and a dose of 450 mg of darolutamide twice daily to achieve partial (90%) AR blockage peripherally, rather than total (100%) AR blockage.

[4] = cited from earlier work
libido [5] = conditions: sublingual testosterone, short testosterone spike; cited from earlier work
libido [6] = conditions: biological women receiving testosterone as part of gender transition therapy; cited from earlier work
libido [7] = conditions: after injection; cited from earlier work

Sequence of peripheral androgen receptors (AR) (P10275 whole entry): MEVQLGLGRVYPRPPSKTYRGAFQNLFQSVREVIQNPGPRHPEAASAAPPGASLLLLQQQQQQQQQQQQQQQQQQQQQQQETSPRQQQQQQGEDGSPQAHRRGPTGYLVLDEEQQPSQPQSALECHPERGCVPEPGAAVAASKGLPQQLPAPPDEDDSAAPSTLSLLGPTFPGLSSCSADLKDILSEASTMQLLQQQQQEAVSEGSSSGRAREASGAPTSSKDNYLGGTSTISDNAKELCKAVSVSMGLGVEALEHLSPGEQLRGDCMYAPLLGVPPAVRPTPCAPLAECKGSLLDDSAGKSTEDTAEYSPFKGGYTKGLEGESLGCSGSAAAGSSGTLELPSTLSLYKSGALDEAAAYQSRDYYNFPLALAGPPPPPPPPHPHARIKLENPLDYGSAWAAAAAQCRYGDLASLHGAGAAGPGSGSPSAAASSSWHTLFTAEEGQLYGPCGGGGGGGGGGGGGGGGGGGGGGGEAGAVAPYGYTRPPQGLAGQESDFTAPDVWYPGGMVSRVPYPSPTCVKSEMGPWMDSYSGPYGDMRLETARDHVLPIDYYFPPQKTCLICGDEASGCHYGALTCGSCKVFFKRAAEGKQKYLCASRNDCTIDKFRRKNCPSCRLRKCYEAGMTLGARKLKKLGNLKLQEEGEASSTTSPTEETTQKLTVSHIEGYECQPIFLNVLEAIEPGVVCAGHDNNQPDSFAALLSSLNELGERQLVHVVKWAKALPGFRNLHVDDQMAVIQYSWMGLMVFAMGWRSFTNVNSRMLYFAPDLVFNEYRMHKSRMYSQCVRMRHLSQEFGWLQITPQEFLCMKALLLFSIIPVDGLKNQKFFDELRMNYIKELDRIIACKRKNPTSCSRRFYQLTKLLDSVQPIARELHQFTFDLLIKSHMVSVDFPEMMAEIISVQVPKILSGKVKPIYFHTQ

## O=c1[nH]c2ccccc2n1CCN1CCN(c2cccc(C(F)(F)F)c2)CC1 [flibanserin]
[1]
  adverse effects: low blood pressure

## CC(O)c1cc(C(=O)N[C@@H](C)Cn2ccc(-c3ccc(C#N)c(Cl)c3)n2)[nH]n1 (stereo partly drawn) [darolutamide]
[1]
  adverse effects: does not cause major adverse effects
[2]
  crossing of the blood-brain barrier: do not cross the blood-brain barrier
[3]
  AR blockage peripherally: 90%

## CC(O)(CS(=O)(=O)c1ccc(F)cc1)C(=O)Nc1ccc(C#N)c(C(F)(F)F)c1 (stereo not drawn) [bicalutamide]
[2]
  crossing of the blood-brain barrier: do not cross the blood-brain barrier

## C[C@H]1CC(=O)C[C@@H]2CC[C@H]3[C@@H]4CC[C@H](O)[C@@]4(C)CC[C@@H]3[C@]21C [mesterolone]
[4]
  oral bioavailability: 3%

## C[C@]12CC[C@H]3[C@@H](CCC4=CC(=O)CC[C@@]43C)[C@@H]1CC[C@@H]2O [testosterone]
Libido [5]
  time until libido boost: 3.5 h
Libido [6]
  women reporting an increase in libido: 71%

## CCCC[C@H](NC(C)=O)C(=O)N[C@H]1CC(=O)NCCCC[C@@H](C(=O)O)NC(=O)[C@H](Cc2c[nH]c3ccccc23)NC(=O)[C@H](CCCN=C(N)N)NC(=O)[C@@H](Cc2ccccc2)NC(=O)[C@H](Cc2cnc[nH]2)NC1=O [bremelanotide]
Libido [7]
  libido boost: temporary libido boost shortly after injection
